Reference: patent US10166279B2, “Vaccine” (Bergen Teknologioverføring AS, priority 2013, dated 2019)
Peptide text beside a SMILES is read from it.

Key:
anti-STh mAb ST:G8 = experiment: Competitive ELISA with anti-STh antibodies (polyclonal, mAb ST:G8); format: binding; conditions: polyclonal and monoclonal (ST:G8) anti-STh antibodies
Procedure: Competitive STh ELISA was performed as previously described (PMID: 6520401; Lockwood and Robertson, J Immunol Methods. 1984 Dec. 31; 75(2):295-307) with minor modifications. A U-shaped microtiter plate (Linbro, Fisher Scientific, Göteborg, Sweden) was coated with STh-ovalbumin conjugate diluted in ELISA buffer (NaCl 128 mM, KCl 2.68 mM, KH2PO4 1.47 mM, Na2HPO4 8.10 mM; pH 7.0-7.2). The plate was covered with plate sealer and incubated overnight at 37° C. Contents of the wells were discarded by inversion. Additional protein binding sites were blocked by incubating with ovalbumin 1% (w/v) (Sigma-Aldrich) diluted in ELISA buffer. After incubation for 1 h at 37° C., wells were emptied and washed three times with wash buffer (ELISA buffer containing ovalbumin 0.05% (w/v) and Tween-20 0.05% (v/v)). 75 μL of samples containing STh and 75 μL of diluted antisera (Protein-A purified rabbit anti-STa kindly supplied by John D. Clements; Department of Microbiology and Immunology, Tulane University, New Orleans, USA) were added. Both dilutions were done in ELISA buffer containing ovalbumin 0.05% (w/v). Appropriate dilutions and concentrations of reagents were determined by checkerboard titrations. The plate was incubated for 2 h at 37° C., in a rotary incubator shaker (Infors HT, Bottmingen/Basel Switzerland) at 180 rpm. Wells were emptied and washed three times with wash buffer. 100 μL of anti-Rabbit IgG Alkaline Phosphatase Conjugate developed in goat (Sigma-Aldrich) diluted 1:400 in ELISA buffer with ovalbumin 0.05% (w/v) were add and incubated with not shaking for 1 h at 37° C. Wells were emptied and washed three times with wash buffer followed by addition of 100 μL of 4-Nitrophenyl phosphate disodium salt hexahydrate at 1 mg/mL in diethanolamine buffer (diethanolamine 9.7% (v/v), MgCl2×6H2O 0.49 mM; pH 9.8). After incubation for 30 min, the reaction was stopped with 50 μL 2N NaOH (VWR international) in each well. The absorbance was read in an automatic plate reader at 405 nm (FLUOstar OPTIMA; BMG Labtech, Germany). All samples were measured in triplicate.
The anti-STh mAb ST:G8 was kindly supplied by S. Visweswariah [Garrett & Visweswariah; PMID: 8950201]. The anti-STp mAbs clone 29, clone 30, and clone 31 were obtained from Fitzgerald Industries International.
ELISA-plates (Nunc Amino Immobilizer) were coated with STh-OvA conjugate in PBS, volume 100 μl per well (synthetic STh conjugated to OvA: For ST:G8 0.04 μl/well, for clone 29 and clone 30 0.01 μl/well). Plates were incubated overnight at 4 C. Subsequently, plates were emptied and blocked with PBS-T 1% OvA for 1h at 20° C. with shaking 180 rpm. […] Developing was stopped by adding 50 μl NaOH 2M to each well, and OD was read at 405 nm with a Fluostar Optima plate reader.

GC-C receptor = target: T1, GC-C receptor (Homo sapiens, UniProt P25092); experiment: GC-C receptor T-84 cell assay (toxicity, cGMP levels) of culture filtrates; format: cell-based; conditions: culture filtrate; for Toxicity: relative to native STh, ^2 = no detectable toxicity, set to detection limit 0.0014; for toxicity relative to native STh: T84 cell assay
T1 construct: endogenous in cells; host or cells: T-84 cells
T1 sequence (P25092 24-1073): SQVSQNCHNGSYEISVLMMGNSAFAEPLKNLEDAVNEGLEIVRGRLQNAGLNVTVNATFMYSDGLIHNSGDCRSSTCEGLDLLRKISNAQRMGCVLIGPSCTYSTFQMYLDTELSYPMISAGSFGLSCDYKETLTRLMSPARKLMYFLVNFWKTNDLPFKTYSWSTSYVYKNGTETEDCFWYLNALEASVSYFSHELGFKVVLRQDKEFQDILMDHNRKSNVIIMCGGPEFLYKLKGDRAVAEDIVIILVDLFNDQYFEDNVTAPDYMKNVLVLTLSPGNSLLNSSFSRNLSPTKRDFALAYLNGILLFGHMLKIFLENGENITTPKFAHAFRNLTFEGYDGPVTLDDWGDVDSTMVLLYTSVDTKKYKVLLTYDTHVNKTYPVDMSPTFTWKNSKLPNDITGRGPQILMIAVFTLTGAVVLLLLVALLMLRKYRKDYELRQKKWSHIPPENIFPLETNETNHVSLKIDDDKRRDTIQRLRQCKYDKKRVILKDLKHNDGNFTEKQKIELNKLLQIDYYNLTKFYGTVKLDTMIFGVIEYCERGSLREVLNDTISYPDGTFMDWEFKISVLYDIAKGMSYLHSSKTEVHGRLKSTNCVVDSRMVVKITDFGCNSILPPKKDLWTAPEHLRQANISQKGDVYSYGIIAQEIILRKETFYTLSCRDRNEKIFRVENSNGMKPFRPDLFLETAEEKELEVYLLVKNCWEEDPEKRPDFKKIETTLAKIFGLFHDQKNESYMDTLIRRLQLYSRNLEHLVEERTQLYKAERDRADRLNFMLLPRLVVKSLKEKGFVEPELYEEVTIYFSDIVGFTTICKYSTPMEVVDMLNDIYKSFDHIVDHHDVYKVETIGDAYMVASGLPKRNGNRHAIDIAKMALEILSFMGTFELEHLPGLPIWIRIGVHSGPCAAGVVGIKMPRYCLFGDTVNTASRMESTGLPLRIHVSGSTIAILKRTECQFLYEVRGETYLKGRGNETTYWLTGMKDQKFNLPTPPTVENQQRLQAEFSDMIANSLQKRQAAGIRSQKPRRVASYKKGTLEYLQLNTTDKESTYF
Procedure: T-84 cells were seeded and cultured in each well of a 24 well plate. After removing the Dulbecco's modified Eagle's medium (DMEM:F12 (1:1) Lonza Walkersville, Inc.), cells were washed 3 times with 0.5 mL DMEM. Cells were incubated with 0.25 mL DMEM containing 1 mM 3-isobutyl-1-methylxanthine (IBMX) for 10 min at 37° C. 0.1 mL of sample (culture filtrate) was added to each well and incubated for 60 min at 37° C. Following incubation, the reaction medium was aspirated, and the cells were lysed with […] HCl at room temperature for 20 min. The lysates were centrifuged at top speed for 10 min and the cGMP levels were measured in control- and agonist-stimulated cells with a direct cGMP enzyme immunoassay kit (Enzo Life Sciences, Inc.) according to the manufacturer's instructions.
The culture filtrate of each mutant was added to the T-84 cells in duplicate, and a serial dilution of culture filtrates with recombinantly expressed native ST was used to generate a standard curve.
Toxicity measured in culture filtrates is a product of intrinsic toxicity (toxicity per mol) and the concentration of the ST mutant. The same is true for antigenicity. […] Since we have no method for accurately measuring ST (mutant) concentrations in culture filtrates, we are not able to directly measure intrinsic toxicities and antigenicities for the ST mutants.
To circumvent this problem we measure toxicity and antigenicity for the ST mutants relative to native ST. This allows us to describe changes in toxicity and antigenicity in mutant culture filtrates. Next, we divide the change in antigenicity by the change in toxicity for each mutant. If the same culture filtrate has been used to measure toxicity and antigenicity this allows us to eliminate the of the concentration.

Molecule	binding by anti-STh antibodies (anti-STh mAb ST:G8)	Toxicity (GC-C receptor)	other results
guanylin (PGTCEICAYAACTGC) [endogenous peptide ligand of the GC-C receptor]	not		
NSSNYCCELCCNPACTGCY [STh]	bound		
CC(C)C[C@@H]1NC(=O)[C@H](CCC(=O)O)NC(=O)[C@@H]2CSSC[C@@H]3NC(=O)[C@H](CCCNC(=N)N)NC(=O)[C@@H]4CCCN4C(=O)[C@H](CC(N)=O)NC(=O)[C@H](CSSC[C@H](NC(=O)[C@H](Cc4ccc(O)cc4)NC(=O)[C@H](CC(N)=O)NC(=O)[C@H](CO)NC(=O)[C@H](CO)NC(=O)[C@@H](N)CC(N)=O)C(=O)N2)NC(=O)[C@H](CSSC[C@@H](C(=O)N[C@@H](Cc2ccc(O)cc2)C(=O)O)NC(=O)CNC(=O)[C@H]([C@@H](C)O)NC3=O)NC1=O [Mutant A14R] (HELM PEPTIDE1{N.S.S.N.Y.C.C.E.L.C.C.N.P.R.C.T.G.C.Y}$PEPTIDE1,PEPTIDE1,6:R3-11:R3|PEPTIDE1,PEPTIDE1,7:R3-15:R3|PEPTIDE1,PEPTIDE1,10:R3-18:R3$$$V2.0)		< 0.0014^2	
CC(C)C[C@@H]1NC(=O)[C@H](CCC(=O)O)NC(=O)[C@@H]2CSSC[C@@H]3NC(=O)[C@H](C)NC(=O)[C@@H]4CCCN4C(=O)[C@H](C(C)C)NC(=O)[C@H](CSSC[C@H](NC(=O)[C@H](Cc4ccc(O)cc4)NC(=O)[C@H](CC(N)=O)NC(=O)[C@H](CO)NC(=O)[C@H](CO)NC(=O)[C@@H](N)CC(N)=O)C(=O)N2)NC(=O)[C@H](CSSC[C@@H](C(=O)N[C@@H](Cc2ccc(O)cc2)C(=O)O)NC(=O)CNC(=O)[C@H]([C@@H](C)O)NC3=O)NC1=O [Mutant N12V] (HELM PEPTIDE1{N.S.S.N.Y.C.C.E.L.C.C.V.P.A.C.T.G.C.Y}$PEPTIDE1,PEPTIDE1,6:R3-11:R3|PEPTIDE1,PEPTIDE1,7:R3-15:R3|PEPTIDE1,PEPTIDE1,10:R3-18:R3$$$V2.0)			toxicity relative to native STh (GC-C receptor): 0.01
CC(C)C[C@@H]1NC(=O)[C@H](CCC(=O)O)NC(=O)[C@@H]2CSSC[C@@H]3NC(=O)[C@H](C)NC(=O)[C@@H]4CCCN4C(=O)[C@H]([C@@H](C)O)NC(=O)[C@H](CSSC[C@H](NC(=O)[C@H](Cc4ccc(O)cc4)NC(=O)[C@H](CC(N)=O)NC(=O)[C@H](CO)NC(=O)[C@H](CO)NC(=O)[C@@H](N)CC(N)=O)C(=O)N2)NC(=O)[C@H](CSSC[C@@H](C(=O)N[C@@H](Cc2ccc(O)cc2)C(=O)O)NC(=O)CNC(=O)[C@H]([C@@H](C)O)NC3=O)NC1=O [Mutant N12T] (HELM PEPTIDE1{N.S.S.N.Y.C.C.E.L.C.C.T.P.A.C.T.G.C.Y}$PEPTIDE1,PEPTIDE1,6:R3-11:R3|PEPTIDE1,PEPTIDE1,7:R3-15:R3|PEPTIDE1,PEPTIDE1,10:R3-18:R3$$$V2.0)			toxicity relative to native STh (GC-C receptor): 0.03
CC(C)C[C@@H]1NC(=O)[C@H](CCC(=O)O)NC(=O)[C@@H]2CSSC[C@@H]3NC(=O)[C@H](C)NC(=O)[C@H](C)NC(=O)[C@H](CC(N)=O)NC(=O)[C@H](CSSC[C@H](NC(=O)[C@H](Cc4ccc(O)cc4)NC(=O)[C@H](CC(N)=O)NC(=O)[C@H](CO)NC(=O)[C@H](CO)NC(=O)[C@@H](N)CC(N)=O)C(=O)N2)NC(=O)[C@H](CSSC[C@@H](C(=O)N[C@@H](Cc2ccc(O)cc2)C(=O)O)NC(=O)CNC(=O)[C@H]([C@@H](C)O)NC3=O)NC1=O [Mutant P13A] (HELM PEPTIDE1{N.S.S.N.Y.C.C.E.L.C.C.N.A.A.C.T.G.C.Y}$PEPTIDE1,PEPTIDE1,6:R3-11:R3|PEPTIDE1,PEPTIDE1,7:R3-15:R3|PEPTIDE1,PEPTIDE1,10:R3-18:R3$$$V2.0)		< 0.0014^2	
C[C@@H]1NC(=O)[C@@H]2CCCN2C(=O)[C@H](CC(N)=O)NC(=O)[C@@H]2CSSC[C@H](NC(=O)[C@H](Cc3ccc(O)cc3)NC(=O)[C@H](CC(N)=O)NC(=O)[C@H](CO)NC(=O)[C@H](CO)NC(=O)[C@@H](N)CC(N)=O)C(=O)N[C@H]3CSSC[C@H](NC1=O)C(=O)N[C@@H]([C@@H](C)O)C(=O)NCC(=O)N[C@H](C(=O)N[C@@H](Cc1ccc(O)cc1)C(=O)O)CSSC[C@H](NC(=O)CNC(=O)[C@H](CCC(=O)O)NC3=O)C(=O)N2 [Mutant L09G] (HELM PEPTIDE1{N.S.S.N.Y.C.C.E.G.C.C.N.P.A.C.T.G.C.Y}$PEPTIDE1,PEPTIDE1,6:R3-11:R3|PEPTIDE1,PEPTIDE1,7:R3-15:R3|PEPTIDE1,PEPTIDE1,10:R3-18:R3$$$V2.0)		< 0.0014^2	
CC(C)C[C@@H]1NC(=O)[C@H](CCC(=O)O)NC(=O)[C@@H]2CSSC[C@@H]3NC(=O)[C@H](CCC(N)=O)NC(=O)[C@@H]4CCCN4C(=O)[C@H](CC(N)=O)NC(=O)[C@H](CSSC[C@H](NC(=O)[C@H](Cc4ccc(O)cc4)NC(=O)[C@H](CC(N)=O)NC(=O)[C@H](CO)NC(=O)[C@H](CO)NC(=O)[C@@H](N)CC(N)=O)C(=O)N2)NC(=O)[C@H](CSSC[C@@H](C(=O)N[C@@H](Cc2ccc(O)cc2)C(=O)O)NC(=O)CNC(=O)[C@H]([C@@H](C)O)NC3=O)NC1=O [Mutant A14Q] (HELM PEPTIDE1{N.S.S.N.Y.C.C.E.L.C.C.N.P.Q.C.T.G.C.Y}$PEPTIDE1,PEPTIDE1,6:R3-11:R3|PEPTIDE1,PEPTIDE1,7:R3-15:R3|PEPTIDE1,PEPTIDE1,10:R3-18:R3$$$V2.0)		< 0.0014^2	
NTFYCCELCCNPACAGCY [STp]	bound		
CC(C)C[C@@H]1NC(=O)[C@H](CCC(=O)O)NC(=O)[C@@H]2CSSC[C@@H]3NC(=O)[C@H](CCC(=O)O)NC(=O)[C@@H]4CCCN4C(=O)[C@H](CC(N)=O)NC(=O)[C@H](CSSC[C@H](NC(=O)[C@H](Cc4ccc(O)cc4)NC(=O)[C@H](CC(N)=O)NC(=O)[C@H](CO)NC(=O)[C@H](CO)NC(=O)[C@@H](N)CC(N)=O)C(=O)N2)NC(=O)[C@H](CSSC[C@@H](C(=O)N[C@@H](Cc2ccc(O)cc2)C(=O)O)NC(=O)CNC(=O)[C@H]([C@@H](C)O)NC3=O)NC1=O [Mutant A14E] (HELM PEPTIDE1{N.S.S.N.Y.C.C.E.L.C.C.N.P.E.C.T.G.C.Y}$PEPTIDE1,PEPTIDE1,6:R3-11:R3|PEPTIDE1,PEPTIDE1,7:R3-15:R3|PEPTIDE1,PEPTIDE1,10:R3-18:R3$$$V2.0)		< 0.0014^2	
